Results from patent US7052850B2, “Isolated human EDG-4 receptor” (priority 1997, dated 2006).

Legend:
Assay type in all cases: cell-based
EDG-7 [1] = assay: SRE reporter, EDG-7
EDG-1 [2] = target: T1, EDG-1 (Homo sapiens, UniProt P21453); assay: SRE luciferase reporter (2XSREtk-p4Luc-zeo) in 293-EBNA cells, EDG-1; details: Assay 3; 3 μM; 6 hours
Description: (§2) The protocol described in Example 11 for Assay 1 was allowed except for the following changes: • 1) 100 mm plates of 293-EBNA ith a confluency of ˜80% were used for transfection, • 2) SRE Cotransfection: 0.5 μg of 2XSREtk-p4Luc-zeo reporter DNA and 3.5 μg pcDNA3, EDG-1, EDG-3 pC3-hE3P2, different from the clone used in Assay 2 of Example 11) or the newly cloned human EDG-4 (pC3-hedg4#36); NF-κB Cotransfection: 2 μg 6XNFκBtk-p4LUc-zeo reporter DNA and 2.0 μg pcDNA3, EDG-1, EDG-3 (pC3-hE3HP2), or EDG-4 (pC3-hedg4#36). Expression plasmid and reporter plasmid DNA samples were combined and diluted in 750 μl of DMEM/F12 (serum free media) and 20 μl Plus Reagent (Lipofectamine Plus Kit, Life Technologies Cat. 109640-13), and incubated at room temperature for 15 min. • 3) 30 μl Lipofectamine Reagent (Lipofectamine Plus Kit) was diluted in 750 μl DMEM/F12. The diluted Lipofectamine was then combined with the DNA/Plus mixture and incubated at room temperature for 15 min. • 4) The 293-EBNA plates were washed once with PBS and 5 ml DMEM/F12 was added to each plate. • 5) DNA/Plus/Lipofectamine mixture was added to each plate of 293-EBNA cells. […]

COS-1 cells = assay: IL-8 response in control COS-1 cells (empty vector pcDNA3); details: control cells transfected with pcDNA3; 5 μm S1P
EDG-1 [3] = target: T1, EDG-1; assay: NF-κB luciferase reporter in 293-EBNA cells, EDG-1; details: Assay 3; 3 μM; 6 hours
Description: as §2

EDG-7 [4] = assay: NF-κB reporter, EDG-7
pcDNA3-transfected cells = assay: Calcium microfluorimetry (fura-2), pcDNA3-transfected 293-EBNA cells; details: 2 μM S1P
Description: Transfections were carried out with EDG receptors in 293-EBNA cells as described above, except that no reporter gene vector was included in the DNA mix. Two days after transfection, cells were harvested by trypsinization and plated at a density of 200,000 cells onto poly-D-lysine-coated coverslips in 100 μl of medium containing 0.5% FBS. After briefly allowing cell attachment to take place, 2 ml of medium without FBS was added and the cells were incubated overnight. The next day, cells were loaded with 5 μM fura-2 AM ester (Molecular Probes) for 60 min at RT, then washed and used for calcium microfluorimetry. […] Treatments were applied using a gravity-fed perfusion apparatus. Fluorescence emission was continuously monitored and recorded with PTI 2.060a software and analyzed with Sigma Plot software. Intracellular calcium concentrations were calculated by interpolation on a ratiometric fluorescence curve generated from fura-2 fluorescence in a calcium dilution series.

rat EDG-4 = rat EDG-4 (Rattus norvegicus, UniProt P47752); assay: IL-8 response in COS-1 cells transfected with rat EDG-4 expression plasmid; parameters: transient transfection with a eukaryotic expression vector expressing full-length rat edg-4 cDNA; expressed in transfected cells; details: COS-1, EDG-4 expression plasmid; 5 μm S1P overnight
EDG-6 [5] = target: T2, EDG-6 (Homo sapiens, UniProt Q9HBW0); assay: NF-κB reporter in 293-EBNA cells, EDG-6; details: 10 μM LPA overnight
T2 construct: expressed in transfected cells; host or cells: 293-EBNA
From the text: (§1) LPA, like S1P, is abundant in serum, but not plasma. Moreover, LPA is produced as a consequence of phospholipase A2 with or without the contribution of phospholipase D (depending on the phospholipid substrate). […] To date we have identified three subtypes of edg receptors that respond to LPA as an agonist. These are EDG-2, […] (referred to also as LPA1, LPA2 and LPA3, respectively (Chun, J, Contos, JJA and Munroe, DG. 1998. A growing family of receptor genes for lysophophatidid acid (LPA) and other lyso-phospholipids. Cell Biochem Biophys (in press)). The EDG-5 receptor is set out in co-pending U.S. application Ser. No. 08/997,803 to MUNROE et al., incorporated herein to reference and the amino acid sequence and cDNA sequence for the EDG-6 receptor is set out in FIGS. 21 and 22, respectively. To determine whether these receptors might mediate inflammatory responses, each was cotransfected separately with SRE, NF-κB or AP-1 reporter genes. […] This transcription factor, like NF-κB has been implicated in inflammatory and neoplastic signal transduction, though the gene targets of its action are largely distinct from those of NF-κB (Adcock I M. 1997. Transcription factors as activators of gene transcription; AP-1 and NF-κB. Monaldi Arch Chest Dis 52:178–186. Review). […]

human EDG-5 = target: T3, human EDG-5 (Homo sapiens, UniProt Q9UBY5); assay: NF-κB luciferase reporter in 293-EBNA cells, human EDG-5; details: 10 μM LPA overnight
T3 construct: expressed in transfected cells; host or cells: 293-EBNA
T3 sequence (Q9UBY5 1-353): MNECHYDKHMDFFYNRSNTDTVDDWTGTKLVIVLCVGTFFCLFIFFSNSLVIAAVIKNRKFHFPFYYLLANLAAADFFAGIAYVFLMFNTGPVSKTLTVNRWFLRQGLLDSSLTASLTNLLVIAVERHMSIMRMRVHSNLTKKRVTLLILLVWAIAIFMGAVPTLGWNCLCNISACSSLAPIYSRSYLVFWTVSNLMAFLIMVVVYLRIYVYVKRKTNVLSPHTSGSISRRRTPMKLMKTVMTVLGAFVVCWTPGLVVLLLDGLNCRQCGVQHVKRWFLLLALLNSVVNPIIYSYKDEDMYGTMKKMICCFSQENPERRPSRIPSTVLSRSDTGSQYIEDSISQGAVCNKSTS
Description: The above protocol for assay 1 was followed except for the following changes: • 1) 100 mm plates of 293-EBNA with a confluency of ˜80% were used for transfection. • 2) 3 μg NFκB-tk-p4Luc reporter DNA and 3 μg pC3-hedg1, pC3-hedg 3, pC3-redg4, pC3-hedg5 or pcDNA3 DNA was diluted in 240 μl OPTI-MEM (Gibco; Cat. 31985-062) • 3) 22 μl lipofectamine (Gibco; Cat. 1 8324-020) was diluted in 240 μl OPTI-MEM. • 4) The 293-EBNA plates were washed once with PBS and 7 ml OPTI-MEM was added to each plate. • 5) DNA/lipofectamine mixture was added to each plate of 293-EBNA cells. The plates were left for 4 hrs at 37° C. in a 5% CO2 incubator. Day 2: • 1) 0.01×10^6 cells were plated per well of 96-well Blackview plate coated with polyD-lysine. No cells were plated in the outside wells of the 96-well plate. Day 3: The following treatments were used for all transections:
293-EBNA cells were grown, lipofected in monolayer cultures, and pretreated as described above for Example 11, assay #1, except that NF-κB and AP-1 reporter-transfected cells were preteated for 6 hr in medium containing 0.5% […], then treated overnight in the same medium with or without 10 μM LPA.

EDG-6 [6] = target: T2, EDG-6; assay: SRE reporter in 293-EBNA cells, EDG-6; details: 10 μM LPA
From the text: as §1

[7] = system: pcDNA3-transfected 293-EBNA cells; assay: AP-1 reporter in 293-EBNA cells, empty vector pcDNA3; details: 10 μM LPA
From the text: as §1

EDG-2 = target: T4, EDG-2 (Homo sapiens, UniProt Q92633); assay: NF-κB reporter in 293-EBNA cells, EDG-2; details: 10 μM LPA overnight
T4 construct: expressed in transfected cells; host or cells: 293-EBNA
From the text: as §1

T2 sequence (Q9HBW0 with tags, fused parts or gaps): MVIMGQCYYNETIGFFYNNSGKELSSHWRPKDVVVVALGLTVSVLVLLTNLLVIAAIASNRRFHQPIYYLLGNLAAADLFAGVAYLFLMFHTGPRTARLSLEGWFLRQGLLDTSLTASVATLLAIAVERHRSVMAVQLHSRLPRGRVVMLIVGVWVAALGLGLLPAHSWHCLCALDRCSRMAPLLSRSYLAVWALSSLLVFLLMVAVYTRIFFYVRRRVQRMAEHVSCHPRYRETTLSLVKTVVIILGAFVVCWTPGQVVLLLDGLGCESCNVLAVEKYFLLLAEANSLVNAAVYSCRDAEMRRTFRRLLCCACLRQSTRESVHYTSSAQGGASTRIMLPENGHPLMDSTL
T1 sequence (P21453 whole entry): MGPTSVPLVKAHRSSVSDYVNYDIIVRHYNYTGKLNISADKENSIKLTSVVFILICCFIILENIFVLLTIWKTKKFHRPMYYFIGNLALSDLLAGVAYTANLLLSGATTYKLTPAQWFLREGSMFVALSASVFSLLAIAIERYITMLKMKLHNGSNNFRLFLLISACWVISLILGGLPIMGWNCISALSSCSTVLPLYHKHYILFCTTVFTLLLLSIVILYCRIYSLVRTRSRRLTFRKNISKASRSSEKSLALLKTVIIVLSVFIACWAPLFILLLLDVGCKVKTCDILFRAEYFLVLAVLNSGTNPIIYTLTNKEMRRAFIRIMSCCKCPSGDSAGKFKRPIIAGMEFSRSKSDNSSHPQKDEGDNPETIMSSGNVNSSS
rat EDG-4, sequence (P47752 whole entry): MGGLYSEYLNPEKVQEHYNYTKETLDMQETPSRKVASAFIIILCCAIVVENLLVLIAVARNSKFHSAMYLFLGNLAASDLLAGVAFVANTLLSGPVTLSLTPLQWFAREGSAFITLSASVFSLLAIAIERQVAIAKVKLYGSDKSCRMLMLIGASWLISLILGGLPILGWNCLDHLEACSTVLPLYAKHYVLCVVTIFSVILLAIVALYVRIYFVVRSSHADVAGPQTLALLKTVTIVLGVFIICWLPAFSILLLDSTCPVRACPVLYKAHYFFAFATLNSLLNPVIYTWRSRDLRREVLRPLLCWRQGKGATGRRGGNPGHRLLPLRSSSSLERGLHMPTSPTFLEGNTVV
T4 sequence (Q92633 whole entry): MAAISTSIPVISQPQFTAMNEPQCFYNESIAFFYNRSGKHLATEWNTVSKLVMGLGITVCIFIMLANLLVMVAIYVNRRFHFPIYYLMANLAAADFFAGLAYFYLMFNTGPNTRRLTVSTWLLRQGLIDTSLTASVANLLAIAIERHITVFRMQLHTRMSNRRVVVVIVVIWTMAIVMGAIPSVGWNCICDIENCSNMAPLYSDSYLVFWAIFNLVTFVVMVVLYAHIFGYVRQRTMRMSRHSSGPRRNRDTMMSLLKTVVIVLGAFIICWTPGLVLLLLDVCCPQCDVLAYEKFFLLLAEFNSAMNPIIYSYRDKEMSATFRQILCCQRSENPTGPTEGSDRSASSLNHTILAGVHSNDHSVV

| Compound | SRE reporter response (EDG-7 [1]) | increase in luciferase activity (SRE reporter) (EDG-1 [2]) | IL-8 response to S1P (COS-1 cells) | luciferase activity (NF-κB reporter) (EDG-1 [3]) | NF-κB reporter response (EDG-7 [4]) | change in intracellular calcium (pcDNA3-transfected cells) | increase in IL-8 release compared to untreated cells (rat EDG-4) | activation of the NF-κB reporter (EDG-6 [5]) | activation of the NF-κB reporter (human EDG-5) | induction of the SRE reporter (EDG-6 [6]) | endogenous AP-1 reporter response vs untreated control cells [7] | activation of the NF-κB reporter (EDG-2) |
| --- | --- | --- | --- | --- | --- | --- | --- | --- | --- | --- | --- | --- |
| CCCCCCCCCCCCC/C=C/[C@@H](O)[C@@H](N)COP(=O)(O)O [S1P, sphingosine 1-phosphate] | respond through the SRE reporter | 8 fold | No IL-8 | no increase in luciferase activity | fail to signal through NF-κB reporters | approximately 60 nM | 2 fold |  |  |  |  |  |
| lysophosphatidic acid [LPA] |  |  |  |  |  |  |  | 3–4 fold | 3–4 fold | strongly induced | about 1.5 fold | 3–4 fold |
